Laboratory results as given in PubChem BioAssay (NCI).
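Tested at 5 concentrations; 48 h exposure; 96-well plates; endpoints linearly interpolated, else capped at highest concentration. GI50 marks 50% less growth. Definition used: TGI = concentration required for complete inhibition of growth.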

Tested on: MDA-MB-468 breast
Assay: inhibition of tumour cell growth, NCI panel, 48 h

SMILES	GI50	TGI
Clc1ccc(/C=C/c2ccc3ccccc3n2)cc1	419 nM	2.95 µM
c1ccc(-c2nc3n(c2-c2ccc4c(c2)OCO4)CCC3)nc1	5810 nM	17 µM
CCOC(=O)c1ccc(NC(=O)NC2=NCCS2)cc1	623 nM	> 26.4 µM
C/C(=C(/c1ccccc1)c1ccc(OCC(O)CNCCN2CCOCC2)cc1)c1ccccc1 (stereo unspecified)	1410 nM	2.85 µM
C=C1C(=O)O[C@H]2[C@H]1CC/C(COC(=O)NCc1ccc(Cn3c(=O)sn(CCCCC)c3=O)cc1)=C\CC[C@@]1(C)O[C@@H]21	1190 nM	2.64 µM
COc1ccc(C2=NC(=O)NC2c2ccc(OC)cc2)cc1 (stereo unspecified)	4710 nM	43.7 µM
COc1ccc(Nc2nc(Nc3cc(C)[nH]n3)c3cc(OC)c(OC)cc3n2)cc1	1010 nM	2.53 µM
CCn1cc(/C=C2\Oc3cc(OCC#N)ccc3C2=O)c2cc(OC)ccc21	802 nM	13.7 µM
COc1ccc(C(=O)c2sc3nc(-c4ccccc4OC)ccc3c2N)cc1OC	6280 nM	> 100 µM
Cc1cn(-c2cccc(NC(=O)c3ccc(C)c(Nc4nccc(-c5cccnc5)n4)c3)c2)cn1	1610 nM	3.18 µM
Nc1nc(N)c2cc(Sc3ccc4ccccc4c3)ccc2n1	1100 nM	2.39 µM
Cn1c(=O)n(C)c2cc(CNCCNc3ccnc4cc(Cl)ccc34)ccc21	14400 nM	32.4 µM
COc1ccc(-c2nc(-c3nc4cc(Cl)c(F)cc4[nH]3)c3ccccn23)cc1	2930 nM	30.3 µM
COc1ccc2[nH]cc(-c3cc(N)n4nc(-c5c[nH]c6ccc(OC)cc56)cc4n3)c2c1	1730 nM	3.75 µM
O=C(Nc1cccc2[nH]c(C(F)(F)F)nc12)c1cc(Cl)ccc1Cl	2520 nM	7.74 µM
CCCN(CCC)c1ccc(C=O)c(Cl)c1	53.8 nM	0.243 µM
Cc1cc(NCc2cc(Nc3ccnc4cc(Cl)ccc34)ccc2F)nc(N2CCOCC2)n1	1940 nM	5.64 µM
C=C1C(=O)O[C@H]2[C@H]1CC/C(COC(=O)N[C@H]1C[C@H](O[C@H]3C[C@](O)(C(=O)CO)Cc4c(O)c5c(c(O)c43)C(=O)c3c(OC)cccc3C5=O)O[C@@H](C)[C@H]1O)=C\CC[C@@]1(C)O[C@@H]21	793 nM	2.04 µM
CCCC1(CN2c3ccccc3Sc3ccc(Cl)cc32)CCN(CC)C1 (stereo unspecified)	1600 nM	3.14 µM
COc1cccc(CNc2ncnc3c2ncn3C2OC(CO)C(O)C2O)c1O (stereo unspecified)	137 nM	2.09 µM
C=C1C(=O)O[C@H]2[C@H]1CC/C(Cn1cc(-c3ccc(N)cc3)nn1)=C\CC[C@@]1(C)O[C@@H]21	1770 nM	4.21 µM
CC(C)(C)[Si](C)(C)OC1[C@@H](CNC(N)=O)O[C@@H](n2cnc3c(NC(=O)Nc4ccccc4)ncnc32)[C@H]1O[Si](C)(C)C(C)(C)C (stereo partly specified)	2150 nM	8.23 µM
CC(=O)c1ccc2c(c1)N(CCCN1CCN(CCO)CC1)c1ccccc1S2	1670 nM	3.21 µM

SMILES	GI50	TGI
Nc1c(C(=O)c2cccc(C#CCN3CCCCC3)c2)cnn1-c1ccc(F)cc1	7720 nM	> 25 µM
CN(Cc1ccc(F)cc1)c1ccc(CO)c(Cl)c1	58 nM	0.207 µM
COc1ccc(-c2cnnn2-c2nonc2-n2cccc2)cc1OC	2000 nM	7.9 µM
COc1cc([C@@H]2c3cc4c(cc3[C@H](OC(C)=O)[C@H]3COC(=O)[C@@H]23)OCO4)cc(OC)c1OC	293 nM	5.45 µM
CCCCCCCCCc1ccc(OCCOCCOCCOCCOCCOCCOCCOCCOCCO)cc1	66 nM	1.18 µM
Cc1ccc2sc3c(c2c1)OC(N)=C(C#N)C3c1cccc(F)c1 (stereo unspecified)	225 nM	0.724 µM
CCSc1ccc([C@@H]2[C@@H](O)C(=O)N2c2cc(OC)c(OC)c(OC)c2)cc1	< 10 nM	57.6 µM
O=C(CC1(O)C(=O)Nc2ccc(F)cc21)c1ccc(C(=O)NCC2CCC3(CC2)OOC2(CCCCC2)OO3)cc1 (stereo unspecified)	4540 nM	21.6 µM
Cc1ccc2c(n1)C(=O)C(Cl)=C(Nc1ccc(C(=O)OC(C)(C)C)cc1)C2=O	11100 nM	26.7 µM
Cc1cc(N/N=C/c2nc(-c3ccc(Cl)cc3)oc2C)c2cc(Br)ccc2n1	1600 nM	3.63 µM
Cc1cc(CCl)c(C)cc1CCl	379 nM	1.6 µM
CCOP(=O)(OCC)OC[C@]12CCC(C)(C)C=C1[C@H]1CC[C@@H]3[C@@]4(C)CC[C@H](OP(=O)(OCC)OCC)C(C)(C)[C@@H]4CC[C@@]3(C)[C@]1(C)CC2	1300 nM	2.93 µM
COc1cc(F)ccc1-c1cc(Nc2cc(CS(C)(=N)=O)ccn2)ncc1F (stereo unspecified)	91.5 nM	0.445 µM
COc1cc(C2=NN(C(C)=O)C(c3cc(OC)c(OC)c(OC)c3)C2)ccc1O (stereo unspecified)	265 nM	3.61 µM
COc1cc(OC)c2sc(-c3ccc(-n4cncc4-c4ccc(OC)c(OC)c4)cc3)nc2c1	4150 nM	> 100 µM
N=c1ccc2nc3ccc(N)cc3sc-2c1	3020 nM	8.12 µM
CCOC(=O)c1sc(-c2ccc(OS(=O)(=O)C[C@]34CCC(CC3=O)C4(C)C)c(C=O)c2)nc1C	966 nM	3.3 µM
COc1ccc2c(c1)C(=O)/C(=C/c1cccc(OCC(=O)Nc3nc(C)c(C)s3)c1)O2	–	0.0176 µM
COc1cc(OCc2cccc(-c3ccccc3)c2C)cc(OC)c1CN1CCCCC1C(=O)NCCOCCOCCN (stereo unspecified)	1700 nM	3.43 µM
CCN1[C@@H](C(=O)NC23CCC(C(=O)O)(CC2)CC3)[C@H](c2cccc(Cl)c2F)[C@]2(C(=O)Nc3cc(Cl)ccc32)C12CCCCC2	2180 nM	6.68 µM
CN(C)CCCOc1cccc(NC2=C(Cl)C(=O)C(Nc3cccc(OCCCN(C)C)c3)=C(Cl)C2=O)c1	212 nM	0.458 µM
FC(F)(F)c1ccc(-c2nn3ncccc3c2-c2ccnc(Nc3ccc4c(c3)OCCO4)n2)cc1	4520 nM	17.6 µM
Cc1ccc(S(=O)(=O)c2nc(-c3ccccc3)oc2S(C)(=O)=O)cc1	1770 nM	3.84 µM
